The source of these data is article PMC10377566 (European journal of medicinal chemistry, 2022).

≈ marks a conversion by molar mass, not a printed value. Where “and” joins values, the source holds several entries; their conditions need not be identical. Equal values may be shown once.

Data set [1] is described as follows: Metabolic stability in mouse liver microsomes. The format is in vitro ADME, mouse (CD-1 Mouse).
Data set [2] concerns VIM-expressing sarcoma cell lines HT-1080, RD, GCT. The class given is cell-based. The conditions noted are these: for improvement in potency: VIM-expressing sarcoma cell lines, compared to FiVe1.
The subject of data set [3] is HT-1080 cells. Kind of data set: Cell proliferation assay. The conditions noted are these: for improvement in selectivity: cell type selectivity (vs MCF-7), compared to FiVe1; for SI (HT-1080 vs MCF-7): selectivity index, ratio of IC50 values HT-1080 and MCF-7. The format is cell-based.
Data set [4] in a line: Pharmacokinetic study in mouse. The format is in vivo.
Data set [5] relates to vimentin (VIM) Ser56 phosphorylation. Kind of data set: Western blot of VIM Ser56 phosphorylation in HT-1080, RD and GCT sarcoma cells. The class given is cell-based. The conditions noted are these: 24 h, HT-1080, RD and GCT cells.
The nature of data set [6]: HPLC-based kinetic solubility in DPBS. The class given is physicochemical. Conditions: for improvement in solubility: compared to FiVe1, DPBS.
Data set [7] is described as follows: Metabolite identification in incubations with mouse hepatocytes. The class given is in vitro ADME. The conditions noted are these: FiVe1 incubated with mouse hepatocytes, LC-MS/MS, peak area λ = 252–420 nm.
Data set [8] deals with panel of ~100 kinases. The conditions noted are these: concentrations up to 10 μM; cited from earlier work.
For data set [9], the system named is VIM-expressing mesenchymal cancer cell lines. Conditions: anti-proliferative effects compared with cells that lack VIM expression; cited from earlier work.

Consider “3-(3-chloro-5-(4-(8-chlorocinnolin-4-yl)piperazin-1-yl)phenoxy)propane-1,2-diol [Compound 11e]”, for which the T1/2 in data set [1] (mouse liver microsomes) amounted to 42.7 min. Further, in data set [1] (mouse liver microsomes, 60 min), the “Remaining (T= 60 min)” value is listed as 35.7%. Also, the “CLint(mic)” value in data set [1] (mouse, microsomes) turned out to be 32.5 µL/min/mg.
Regarding `Clc1cc(Cl)cc(N2CCN(c3cnnc4c(Cl)cccc34)CC2)c1` [Compound 4a, 8-chloro-4-(4-(3,5-dichlorophenyl)piperazin-1-yl)cinnoline], in [2], the improvement in potency is on record as ~ 4 fold.
On the same count and under the same terms, with `N#Cc1cc(Cl)cc(N2CCN(c3cnnc4c(Cl)cccc34)CC2)c1` [Compound 4b, 3-chloro-5-(4-(8-chlorocinnolin-4-yl)piperazin-1-yl)benzonitrile] the figure was ~ 4 fold.
On to `COc1cc(OC)cc(N2CCN(c3cnnc4c(Cl)cccc34)CC2)c1` [Compound 4c, 8-chloro-4-(4-(3,5-dimethoxyphenyl)piperazin-1-yl)cinnoline], for which the improvement in selectivity in data set [3] is recorded as more than 15 fold. This compound gave an improvement in potency in [2] of more than 20 fold.
For `COc1cccc(N2CCN(c3cnnc4c(Cl)cccc34)CC2)c1` [Compound 4d, 8-chloro-4-(4-(3-methoxyphenyl)piperazin-1-yl)cinnoline], in that order: more than 2 fold and more than 2 fold.
On to `COc1cc(Cl)cc(N2CCN(c3cnnc4c(Cl)cccc34)CC2)c1` [Compound 4e, 8-chloro-4-(4-(3-chloro-5-methoxyphenyl)piperazin-1-yl)cinnoline], for which, in data set [3], the improvement in selectivity is > 10 fold and 19 fold and > 15 fold. The Tlast in [4] (ip 1 mg/kg) is given as 4 h. Moreover, the improvement in bioavailability in data set [4] (oral, compared to FiVe1, assuming dose proportional absorption) was ~ 4 fold. Further, the “VIM Ser56 phosphorylation (Western immunoblot)” value (shortened to “VIM Ser56 phosphorylation”) in [5] is “induce VIM Ser56 phosphorylation at 10-fold lower concentration (100 nM)”. In addition, in data set [2], the improvement in potency is on record as more than 20 fold.
As to `Clc1cc(N2CCCC2)cc(N2CCN(c3cnnc4c(Cl)cccc34)CC2)c1` [Compound 4f, 8-chloro-4-(4-(3-chloro-5-(pyrrolidin-1-yl)phenyl)piperazin-1-yl)cinnoline], the “inhibition of mesenchymal cancer cell growth (in words)” value in data set [2] was “total loss in activity”.
In the case of `Oc1cc(Cl)cc(N2CCN(c3cnnc4c(Cl)cccc34)CC2)c1` [Compound 4g, 3-chloro-5-(4-(8-chlorocinnolin-4-yl)piperazin-1-yl)phenol], the improvement in selectivity in data set [3] is recorded as more than 10 fold. In addition, the improvement in potency in data set [2] is more than 20 fold.
With `Nc1cc(Cl)cc(N2CCN(c3cnnc4c(Cl)cccc34)CC2)c1` [Compound 4i, 3-chloro-5-(4-(8-chlorocinnolin-4-yl)piperazin-1-yl)aniline], the improvement in selectivity in data set [3] is reported as ~ 2 fold. The improvement in potency in [2] is reported as ~ 2 fold.
For `CC(=O)Nc1cc(Cl)cc(N2CCN(c3cnnc4c(Cl)cccc34)CC2)c1` [Compound 4j, N-(3-chloro-5-(4-(8-chlorocinnolin-4-yl)piperazin-1-yl)phenyl)acetamide], the IC50 in data set [2] (Homo sapiens, HT-1080, read-out: IC50 values) was approximately 10 µM.
Regarding `C[C@H]1CN(c2cnnc3c(Cl)cccc23)CCN1c1cc(Cl)cc(Cl)c1` [Compound 7a, (S)-8-chloro-4-(4-(3,5-dichlorophenyl)-3-methylpiperazin-1-yl)cinnoline], the “loss in antiproliferative potency” value in data set [2] (compared with its analog 4a) is reported as ~ 2 fold.
Regarding `Clc1cccc(N2CCN(c3ccnc4c(Cl)cccc34)CC2)c1` [Compound 10d, 8-chloro-4-(4-(3-chlorophenyl)piperazin-1-yl)quinoline], the “VIM Ser56 phosphorylation” value in data set [5] was “inactive”.
On to `NCCOc1cc(Cl)cc(N2CCN(c3cnnc4c(Cl)cccc34)CC2)c1` [Compound 11a, 2-(3-chloro-5-(4-(8-chlorocinnolin-4-yl)piperazin-1-yl)phenoxy)ethan-1-amine], for which, in [3], the “SI (HT-1080 vs MCF-7)” value is listed as more than 5. Further, the solubility at 16 h in [6] (DPBS, pH 7.4) was determined as 68 µM (≈ 28.4 µg/mL). Besides, the improvement in solubility in data set [6] is given as more than 40 fold.
The compound `CN(C)CCOc1cc(Cl)cc(N2CCN(c3cnnc4c(Cl)cccc34)CC2)c1` [Compound 11b, 2-(3-chloro-5-(4-(8-chlorocinnolin-4-yl)piperazin-1-yl)phenoxy)-N,N-dimethylethan-1-amine] gave an improvement in solubility in data set [6] of more than 40 fold.
Consider `CN(C)CCCOc1cc(Cl)cc(N2CCN(c3cnnc4c(Cl)cccc34)CC2)c1` [Compound 11c, 3-(3-chloro-5-(4-(8-chlorocinnolin-4-yl)piperazin-1-yl)phenoxy)-N,N-dimethylpropan-1-amine], for which the improvement in solubility in [6] is reported as more than 40 fold.
As for `OCCOc1cc(Cl)cc(N2CCN(c3cnnc4c(Cl)cccc34)CC2)c1` [Compound 11d, 2-(3-chloro-5-(4-(8-chlorocinnolin-4-yl)piperazin-1-yl)phenoxy)ethan-1-ol], the “SI (HT-1080 vs MCF-7)” value in data set [3] is more than 40. This compound also had an improvement in potency in data set [2] of more than 3 fold.
On to `COCCOc1cc(Cl)cc(N2CCN(c3cnnc4c(Cl)cccc34)CC2)c1` [Compound 11f, 8-chloro-4-(4-(3-chloro-5-(2-methoxyethoxy)phenyl)piperazin-1-yl)cinnoline], for which, in data set [3], the “SI (HT-1080 vs MCF-7)” value is recorded as more than 12.
Consider `COC(COc1cc(Cl)cc(N2CCN(c3cnnc4c(Cl)cccc34)CC2)c1)OC` [Compound 11g, 8-chloro-4-(4-(3-chloro-5-(2,2-dimethoxyethoxy)phenyl)piperazin-1-yl)cinnoline], for which the IC50 in data set [3] (Homo sapiens, HT-1080, 72 h, read-out: IC50 HT-1080) was 13.6 ± 1.18 µM. Also, the “SI (HT-1080 vs MCF-7)” value in data set [3] is more than 2.
As for `COC(=O)CCOc1cc(Cl)cc(N2CCN(c3cnnc4c(Cl)cccc34)CC2)c1` [Compound 11j, methyl 3-(3-chloro-5-(4-(8-chlorocinnolin-4-yl)piperazin-1-yl)phenoxy)propanoate], the “SI (HT-1080 vs MCF-7)” value in [3] is more than 20.
For the compound `O=C(O)CCOc1cc(Cl)cc(N2CCN(c3cnnc4c(Cl)cccc34)CC2)c1` [Compound 11k, 3-(3-chloro-5-(4-(8-chlorocinnolin-4-yl)piperazin-1-yl)phenoxy)propanoic acid], the “SI (HT-1080 vs MCF-7)” value in [3] is reported as more than 13.
As to `Clc1cccc(N2CCN(c3cnnc4c(Cl)cccc34)CC2)c1` [FiVe1], the Tlast in data set [4] (po 25 mg/kg) came out at 18 h. In addition, the “% Peak Area” value in data set [7] was 6%. Also, in data set [5], the “VIM Ser56 phosphorylation” value was “induced Ser56 phosphorylation at 1 μM but not at 100 nM”. Besides, the kinase inhibition entry in [8] is “not found to be an inhibitor of any cell cycle or cytokinesis-related kinase”. For the same compound, the cell-based therapeutic index in data set [9] is more than 10.
